Laboratory results as given in PubChem BioAssay AID2305 (GlaxoSmithKline (GSK), 2010).
Values joined by “and” are separate entries in the source; they are usually repeats but may differ in a detail not shown here. Equal entries are not always repeated.

test system: P. falciparum 3D7 growth, pLDH absorbance; experiment: blood-stage malaria parasite growth potency – strain 3D7, dose response (AID 2305)

Compound | IC50
COc1cc(F)c2ncc(Cl)c(C(O)CN3CCC(NC(=O)c4ccc5c(n4)NC(=O)CO5)CC3)c2c1 (stereo not drawn) | 750 nM
O=C(Nc1ccc(-c2nc3ccccc3[nH]2)cc1)c1ccc(S(=O)(=O)N2CCc3ccccc32)cc1 | 740 nM
CC(C)CNCc1cccc(-c2ccc(CN(C(=O)c3cccs3)C3CCN(Cc4ccccc4)CC3)cc2)c1 | 1010 nM
Cc1cccc(-c2ccc(NC(=O)Nc3ccc4nccc(N5CCN(C)CC5)c4c3)cc2C)n1 | 210 nM
CCN(CC)C(=NCCCCCCN=C(NC(N)=NCc1ccc(Cl)cc1)N(CC)CC)NC(N)=NCc1ccc(Cl)cc1 | 230 nM
COC(=O)C(C)NCC(=O)c1ccccc1 (stereo not drawn) | 120 nM
CCCCCc1cc(O)c2c(c1)OC(C)(C)c1ccncc1-2 | 760 nM
CC(C)c1sc(N2CCN(C)CC2)nc1C(=O)NCCc1cccc(Cl)c1 | 1490 nM
COc1cc(C2NCC3(CCOCC3)c3cc4c(cc32)OCCO4)cc(OC)c1OC (stereo not drawn) | 170 nM
CCN(CC)CCCCOc1ccc2c(c1)C(=O)c1cc(OCCCCN(CC)CC)ccc1-2 | 760 nM
CCCCOc1c(CCC)cc(Cc2cnc(N)nc2N)cc1CCC | 630 nM
O=C(Nc1cccc(-c2cccc(-c3nc4ccc(C(F)(F)F)cc4[nH]3)c2)c1)c1ccc(=O)[nH]n1 | 660 nM
O=C(NCCCCCN1CCC(c2c[nH]c3ccccc23)C1)Nc1ccc(Cl)c(Cl)c1 (stereo not drawn) | 810 nM
COc1ccc(S(=O)(=O)NC2CCN(c3ccc(C(F)(F)F)cc3NC(=O)OCC(C)C)CC2)cc1 | 1220 nM
N#Cc1ccc2c(c1)CN(CCC1CCC(NC(=O)c3cc4cc(OC(F)(F)F)ccc4[nH]3)CC1)CC2 (stereo not drawn) | 780 nM
COc1ccc(NS(=O)(=O)c2ccc(C(=O)Nc3ccc(OC(F)(F)F)cc3)cc2)cc1N1CCN(CC2CC2)CC1 | 1000 nM
CCC(=C(CC)c1ccc(O)c(CNC2CCCCC2)c1)c1ccc(O)c(CNC2CCCCC2)c1 | 150 nM
COc1ccccc1C1CCN(Cc2csc(NC(=O)c3ccc(-c4ccc(C(F)(F)F)cc4)cc3)n2)CC1 | 950 nM
CN(C)CCNCc1ccc(-c2ccc(-c3nc4ccc(F)cc4[nH]3)cc2)cc1 | 470 nM

Compound | IC50
S=C(NN=Cc1ccccn1)NC1C[C@H]2C=C[C@@H]1C2 (stereo partly drawn) | 720 nM
CN1CCN(c2cccc(-c3nnc(-c4ccc(OCC(=O)NCc5ccc(C(F)(F)F)cc5)c([N+](=O)[O-])c4)o3)c2)CC1 | 660 nM
CCOC(=O)C(C(C)=O)C(c1ccccc1)C(C(C)=O)C(=O)OCC (stereo not drawn) | 750 nM
O=C(/C=C/c1ccc(Cl)c(Cl)c1)NCCC1CCC(N2CCC(c3c[nH]c4ccccc34)CC2)CC1 (stereo not drawn) | 200 nM
CCN(CC)CCN(Cc1ccc(-c2ccc(C(F)(F)F)cc2)cc1)C(=O)Cn1c(CCc2cccc(F)c2F)nc(=O)c2cccnc21 | 730 nM
Cc1[nH]c(C)c(-c2ccc(OCc3cc(F)cc(F)c3)nc2)c(=O)c1Cl | 90 nM
Cc1cccc(Nc2nccc(NCC(O)c3ccc(C(F)(F)F)cc3)n2)c1 (stereo not drawn) | 560 nM
Cc1cccc2[nH]c(-c3cccc(-c4ccc(CNCc5ccccc5)cc4)c3)nc12 | 150 nM
Cc1ccc(Nc2nc(C)cc(NCc3ccc(-n4ccnc4)cc3)n2)cc1 | 1010 nM
CN1CCCN(Cc2cccc(-c3ccc(CNC(=O)c4cccc(Cl)c4)c(F)c3)c2)CC1 | 190 nM
COc1cccc(NC(=O)Cn2c(C)c(C#N)c3ccccc32)c1 | 880 nM
CC(C)CNCc1ccc(-c2cccc(CNC3CCN(Cc4ccccc4)CC3)c2)cc1 | 240 nM
CN1CCN(c2ccnc3ccc(NC(=O)Nc4ccc(-c5ccncc5)c(C#N)c4)cc23)CC1 | 160 nM
COc1ccc(NC(=O)/C=C/c2ccccc2Cl)cc1OCCN1CCC(O)(c2ccc(Cl)c(C(F)(F)F)c2)CC1 | 640 nM
Cc1c(Cc2ccc(F)cc2)c(Cl)nc2nc(N)nc(N)c12 | 860 nM
O=C(Nc1ccccc1C(F)(F)F)NC1CCC(CN2CCC(c3c[nH]c4ccccc34)CC2)CC1 (stereo not drawn) | 950 nM and 780 nM
O=C(NCC1CC1)C1CCN(C(c2ccc(Cl)cc2)c2ccc(Cl)cc2)CC1 | 190 nM
Nc1nc(N)c2c(ccc3c2ncn3Cc2ccccc2)n1 | 90 nM
COc1ccc(NC(=O)c2ccc(-c3nc(-c4cccc(C(F)(F)F)c4)cs3)cc2)cc1N1CCN(C)CC1 | 820 nM
